Several values for one entry are separate records, joined by “and”; a condition that tells them apart may be missing. Equal values may be shown once.
Test system: male Sprague Dawley rats
Test: Intestinal phosphate retention: percent radiolabeled dose recovered in gastrointestinal tract
Format: in vivo, rat
Conditions: Example 2 0.4 mg/kg, 4 h after radiolabeled phosphate
Description: The purpose of this study is to investigate in rats the effect of Example 2, Compound A, and an Example 2/Compound A combination on phosphate absorption 15 min after dosing the compounds and the phosphate retained in the intestine 4.25 h after dosing the compounds. The latter is a measure of the oral phosphate load which is absorbed over an extended period.
Two vehicles are used in this study: 1) 1% HEC and 2) 0.46% poly-1-vinylpyrrolidone-co-vinyl acetate in water (PVP-VA vehicle). The vehicle control group in this study receives a 1:1 combination of the two vehicles.
The Example 2, Compound A and phosphate dosing solutions are prepared similarly as described above, except the doses are 0.4 mg/kg for Example 2 and 10 mg/kg for Compound A and they are prepared at a concentration where they would be dosed in a 5 mL/kg volume. The Example 2 and Compound A alone groups are mixed 1:1 with the vehicle of the other compound, while the Compound A and Example 2 are mixed 1:1 prior to dosing. The final dosing volume is 10 mL/kg in all cases.
4 h after the radiolabeled phosphate solution is dosed, stomach, small intestine, large intestine, and feces are collected, weighed and digested with 1N NaOH overnight at 37° C. Radioactivity in each fraction is measured by scintillation counting.
The percent dose recovered in gastrointestinal tract is defined as radioactivity recovered in stomach, small intestine, large intestine and feces compared to the amount dosed. Data is presented as mean±SEM with animal numbers equal to 8 for the groups. Statistical significance is determined by ANOVA with a Dunnett's comparison to the Example 2/Compound A combination using JMP 12.1.
The percent dose recovered in gastrointestinal tract data is further analyzed by a two-way ANOVA in JMP 12.1 to test for additivity of the effects of Example 2 and Compound A on inhibiting phosphate absorption. […] That is, the inhibitory effect of the combination is greater than the sum of the individual compound effects.

`CN1Cc2c(Cl)cc(Cl)cc2[C@H](c2cccc(S(=O)(=O)NCCOCCOCCN/C(=N\C(N)=O)NCCCCN/C(=N/C(N)=O)NCCOCCOCCNS(=O)(=O)c3cccc([C@@H]4CN(C)Cc5c(Cl)cc(Cl)cc54)c3)c2)C1.Cl.Cl` [Example 2, [[4-[[N′-Carbamoyl-N-[2-[2-[2-[[3-[(4S)-6,8-dichloro-2-methyl-3,4-dihydro-1H-isoquinolin-4-yl]phenyl]sulfonylamino]ethoxy]ethoxy]ethyl]carbamimidoyl]amino]butylamino]-[2-[2-[2-[[3-[(4S)-6,8-dichloro-2-methyl-3,4-dihydro-1H-isoquinolin-4-yl]phenyl]sulfonylamino]ethoxy]ethoxy]ethylamino]methylene]urea dihydrochloride] was tested, and the “Percent Dose Recovered, Feces” value was less than 0.1%, the “Percent Dose Recovered, Large Intestine” value (mean ± SEM) was 18.16 ± 2.58% and the “Percent Dose Recovered, Small Intestine” value (mean ± SEM) was 8.64 ± 0.32%. For the same compound, the “Percent Dose Recovered, Stomach” value (mean ± SEM) was 3.9 ± 0.49% and the “Percent Dose Recovered, Total” value (mean ± SEM, dihydrochloride, 0.4 mg/kg) was 31% and 30.7 ± 2.43%.

From patent US12428377B2, “Sodium-hydrogen exchanger 3 inhibitor compounds” (Eli Lilly and Company, priority 2019, dated 2025)
